Experimental data: ChEMBL document CHEMBL1149212, “Synthesis and biological evaluation of imidazole-based small molecule antagonists of the melanocortin 4 receptor (MC4-R)” (Bioorg Med Chem Lett, 2004)

Assays:
[1] = system: HEK293; assay: Ability to decrease the intracellular cAMP levels induced by 1 nM NDP-MSH in HEK293/ hMC4 cells.; format: functional, cell-based; conditions: Homo sapiens
[2] = molecular target: Melanocortin receptor 4 (Homo sapiens, UniProt P32245); assay: In vitro binding affinity towards melanocortin 4 receptor.
[3] = Cmax in rat at the dose of 1 mg/kg i.v.; format: ADME, organism-based; parameters: dose 1 mg/kg, route intravenous; conditions: in vivo, iv
[4] = AUC was determined; format: ADME; conditions: plasma
[5] = Plasma clearance was determined; format: ADME, organism-based; conditions: rat
[6] = AUC in rat p.o.; format: ADME, organism-based; conditions: plasma, po
[7] = Plasma clearance in rat p.o.; format: ADME, organism-based; conditions: po
[8] = Cmax in rat; format: ADME, organism-based; conditions: in vivo

Chain of Melanocortin receptor 4 (P32245 whole entry): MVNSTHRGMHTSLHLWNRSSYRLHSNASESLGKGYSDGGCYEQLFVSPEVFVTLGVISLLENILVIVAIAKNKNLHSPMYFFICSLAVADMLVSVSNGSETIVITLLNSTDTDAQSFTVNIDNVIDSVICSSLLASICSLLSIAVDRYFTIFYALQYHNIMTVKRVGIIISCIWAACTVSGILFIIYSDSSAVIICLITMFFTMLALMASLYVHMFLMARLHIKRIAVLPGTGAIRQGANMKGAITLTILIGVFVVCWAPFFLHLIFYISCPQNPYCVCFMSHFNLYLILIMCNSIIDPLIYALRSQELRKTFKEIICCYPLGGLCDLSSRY

| Structure (SMILES) | IC50 [1] [nM] | Ki [2] [nM] | other results |
| --- | --- | --- | --- |
| COc1ccc(Br)cc1CCc1c(F)cccc1-c1ncc2n1CCCC2 | 480 | 620 |  |
| CCc1cnc(-c2ccccc2CCc2cc(Br)ccc2OC)n1C | 170 | 320 |  |
| COc1ccc(Br)cc1CCc1c(Cl)cccc1-c1ncc2n1CCC2 | 710 | 180 |  |
| COc1ccc(Br)cc1CCc1c(Cl)cccc1-c1nccn1C | 1100 | 300 |  |
| CCn1ccnc1-c1cccc(Cl)c1CCc1cc(Br)ccc1OC | 1800 | 310 |  |
| COc1ccc(Br)cc1CCc1c(Cl)cccc1-c1nccn1CC1CC1 | 1700 | 2000 |  |
| CCCn1ccnc1-c1cccc(Cl)c1CCc1cc(Br)ccc1OC | 1900 | 1300 |  |
| COc1ccc(Br)cc1CCc1c(Cl)cccc1-c1ncc[nH]1 | 580 | 1500 |  |
| CCC(C)n1ccnc1-c1cccc(Cl)c1CCc1cc(Br)ccc1OC (configuration not stated) | 2100 | 2500 |  |
| COc1ccc(Br)cc1CCc1ccccc1-c1nc(C)c(C)n1C | 200 | 140 |  |
| COc1ccc(Br)cc1CCc1c(F)cccc1C1=NCCN1 |  |  | Cmax [3]: 0.031 µM; AUC [4]: 0.204 µM·h; clearance [5]: 222 mL/min/kg |
| COc1ccc(Br)cc1CCc1c(F)cccc1-c1ncc2n1CCC2 | 390 | 320 |  |
| COc1ccc(Br)cc1CCc1ccccc1-c1nc(C(C)C)cn1C | 1200 | 1600 |  |
| COc1ccc(Br)cc1CCc1c(Cl)cccc1-c1ncc2n1CCCC2 | 590 | 340 | AUC [6]: 2 µM·h; CL/F [7]: 18.3 mL/min/kg; Cmax [8]: 6.45 µM |
| CCc1cn(C)c(-c2ccccc2CCc2cc(Br)ccc2OC)n1 | 820 | 690 |  |
| Cn1ccnc1-c1cccc(Cl)c1CCc1cc(Br)ccc1O | 10200 | 9300 |  |
| COc1ccc(Br)cc1CCc1c(Cl)cccc1-c1nccn1C(C)C | 1400 | 670 |  |
| COc1ccc(Br)cc1CCc1ccccc1-c1nc(C)cn1C | 240 | 270 |  |
| COc1ccc(Br)cc1CCc1ccccc1-c1ncc(C)n1C | 51 | 180 |  |
